Test results as given in US10988792B2, “Methods for antimicrobial resistance determination” (bioMerieux, Inc., priority 2009, dated 2021).

What was measured:
Format in all cases: cell-based
S. aureus isolates = test: Vitek AST cards MIC; settings: 3/5 strains classified as benzyl-penicillin resistant and oxacillin sensitive by Vitek cards
Method: Twenty different strains of S. aureus (10 MRSA and 10 MSSA strains, confirmed with cefoxitin discs and Vitek-2) were propagated. A loopful of growth (1 μL) was removed from 24-hour plates and suspended in BacT/ALERT SA culture media (8 ml in a glass screw-capped tube). The tubes were vortexed well and incubated at 36° C. for 6 hours. The OD of each suspension was measured at 660 nm and adjusted to approximately the same density (0.50-0.75 OD; sample #12166 was only 0.28). 50 μM BOCILLIN™-FL (0.1 ml) was placed into each of 20 labeled microfuge tubes. A sample of each strain (0.9 ml) was added to each tube, mixed, and incubated at 37° C. for 30 minutes. The reaction mixture was then removed and added to a second set of tubes containing 0.2 ml of an oil blend (1.000 part type DF immersion oil plus 0.875 part Drakeol 5 mineral oil). The tubes were centrifuged for 2 minutes at 10,000 rpm in an A-8-11 rotor (Eppendorf 5417R). The supernatant and most of the oil was aspirated with a vacuum device. The remaining oil was removed using a Gilson P200 tip and the pellet was resuspended in 100 μl PBS. The cells were transferred to an acrylic cuvette containing 3 ml PBS and read in the FluoroLog 3 system using the FluoroScan “Bocillin” points listed in Table 3. Additionally, Vitek AST cards were run on each of the 20 isolates (from the same 24 hour plates).

E. faecium 13185 (VRE) = test: Co-culture with vancomycin and Sytox Green, intrinsic fluorescence and membrane integrity of pellet; settings: for Microbial NADH fluorescence (Ex340 nm/Em440 nm) / Microbial tryptophan fluorescence (Ex300 nm/Em360 nm): 13185 (VRE)
Method: (§1) For each test strain, a 1 μL loopful of colonies from a 24-48 hour plate was suspended in 10-12 mL of BacT/ALERT SA media and cultured for 4-9 hours at 37° C. […] Aliquots of the cultures were removed for analysis immediately (T0) and after 1, 2.5 and 4 hours.
(§2) At the appropriate time-point, 0.5 mL aliquots of the cultures (0.5 mL) were overlaid on a density cushion composed of 24% w/v CsCl in 10 mM Hepes, pH 7.4 and 0.005% Pluronic F-108 contained in custom-made optical centrifugation tubes as disclosed in related U.S. patent application, Ser. No. 12/589,969, entitled “Separation Device for Use in the Separation, Characterization and/or Identification of Microorganisms”, filed Oct. 30, 2009. The tubes were sealed and centrifuged at 10,000 rpm for 2 minutes to separate intact microorganisms from the culture medium and unbound chemicals. The tubes were then placed into a custom-built tube holder directly onto a fiber optic probe built into the base. The probe was attached to a FluoroLog 3 spectrofluorimeter. The tube was interrogated through its UV-transparent base, and fluorescence and diffuse reflectance readings collected.

E. faecium 12406 (VRE) = test: as above; settings: for Microbial NADH fluorescence (Ex340 nm/Em440 nm) / Microbial tryptophan fluorescence (Ex300 nm/Em360 nm): 12406 (VRE)
Method: as §1, §2

E. faecium #13185 (VRE) = test: Vancomycin MIC by VITEK 2; settings: read-out: vancomycin MIC by VITEK 2
E. faecium #12406 (VRE) = test: Vancomycin MIC by VITEK 2; settings: read-out: vancomycin MIC by VITEK 2
E. faecium 12480 (VSE) = test: Co-culture with vancomycin and Sytox Green, intrinsic fluorescence and membrane integrity of pellet; settings: for Microbial NADH fluorescence (Ex340 nm/Em440 nm) / Microbial tryptophan fluorescence (Ex300 nm/Em360 nm): 12480 (VSE)
Method: For each test strain, a 1 μL loopful of colonies from a 24-48 hour plate was suspended in 10-12 mL of BacT/ALERT SA media and cultured for 4-9 hours at 37° C. Samples of each log phase culture were then incubated with 0, 0.25, 2.5 and 12.5 μg/mL of vancomycin-HCl in combination with 1:5000 dilution of stock Sytox Green, a viable cell impermeant DNA stain (Molecular Probes, cat #S7020), for a period of 4 hours at 37° C. Aliquots of the cultures were removed for analysis immediately (T0) and after 1, 2.5 and 4 hours.
as §2

[1] = VRE strain 13185, vancomycin 2.5 and 12.5 μg/mL
[2] = VRE strain 12406, vancomycin 2.5 and 12.5 μg/mL
[3] = VSE strain 12480, vancomycin 2.5 and 12.5 μg/mL

## Cc1onc(-c2ccccc2)c1C(=O)N[C@@H]1C(=O)N2[C@@H]1SC(C)(C)[C@@H]2C(=O)O [oxacillin]
S. aureus isolates
  oxacillin MIC: 0.5 µg/mL

## CN[C@H](CC(C)C)C(=O)N[C@H]1C(=O)N[C@@H](CC(N)=O)C(=O)N[C@H]2C(=O)N[C@H]3C(=O)N[C@H](C(=O)N[C@H](C(=O)O)c4cc(O)cc(O)c4-c4cc3ccc4O)[C@H](O)c3ccc(c(Cl)c3)Oc3cc2cc(c3O[C@@H]2O[C@H](CO)[C@@H](O)[C@H](O)[C@H]2O[C@H]2C[C@](C)(N)[C@H](O)[C@H](C)O2)Oc2ccc(cc2Cl)[C@H]1O [vancomycin]
E. faecium 13185 (VRE); Vanc. 0.25 μg/mL, 1 hour
  Microbial NADH fluorescence (Ex340 nm/Em440 nm): 708,442
  Microbial tryptophan fluorescence (Ex300 nm/Em360 nm): 557,453
E. faecium 13185 (VRE); Vanc. 0.25 μg/mL, 2.5 hour
  Microbial NADH fluorescence (Ex340 nm/Em440 nm): 496,545
  Microbial tryptophan fluorescence (Ex300 nm/Em360 nm): 809,317
E. faecium 13185 (VRE); Vanc. 0.25 μg/mL, 4 hour
  Microbial NADH fluorescence (Ex340 nm/Em440 nm): 627,392
  Microbial tryptophan fluorescence (Ex300 nm/Em360 nm): 880,899
E. faecium 13185 (VRE); Vanc. 0.25 μg/mL, Zero time
  Microbial NADH fluorescence (Ex340 nm/Em440 nm): 316,618
  Microbial tryptophan fluorescence (Ex300 nm/Em360 nm): 546,862
E. faecium 13185 (VRE); Vanc. 2.5 μg/mL, 1 hour
  Microbial NADH fluorescence (Ex340 nm/Em440 nm): 237,463
  Microbial tryptophan fluorescence (Ex300 nm/Em360 nm): 569,043
E. faecium 13185 (VRE); Vanc. 2.5 μg/mL, 2.5 hour
  Microbial NADH fluorescence (Ex340 nm/Em440 nm): 965,305
  Microbial tryptophan fluorescence (Ex300 nm/Em360 nm): 489,661
E. faecium 13185 (VRE); Vanc. 2.5 μg/mL, 4 hour
  Microbial NADH fluorescence (Ex340 nm/Em440 nm): 782,908
  Microbial tryptophan fluorescence (Ex300 nm/Em360 nm): 868,768
E. faecium 13185 (VRE); Vanc. 2.5 μg/mL, Zero time
  Microbial NADH fluorescence (Ex340 nm/Em440 nm): 256,533
  Microbial tryptophan fluorescence (Ex300 nm/Em360 nm): 531,239
E. faecium 13185 (VRE); Vanc. 12.5 μg/mL, 1 hour
  Microbial tryptophan fluorescence (Ex300 nm/Em360 nm): 579,537
E. faecium 13185 (VRE); Vanc. 12.5 μg/mL, 2.5 hour
  Microbial NADH fluorescence (Ex340 nm/Em440 nm): 775,629
  Microbial tryptophan fluorescence (Ex300 nm/Em360 nm): 537,067
E. faecium 13185 (VRE); Vanc. 12.5 μg/mL, 4 hour
  Microbial NADH fluorescence (Ex340 nm/Em440 nm): 710,100
  Microbial tryptophan fluorescence (Ex300 nm/Em360 nm): 782,106
E. faecium 13185 (VRE); Vanc. 12.5 μg/mL, Zero time
  Microbial NADH fluorescence (Ex340 nm/Em440 nm): 234,554
  Microbial tryptophan fluorescence (Ex300 nm/Em360 nm): 537,160
E. faecium 13185 (VRE); [1]
  Course of cellular NADH levels: rose after approximately 1 hour in culture and continued to rise over the 4-hour culture period
  Course of cellular tryptophan levels: rose slowly over the 4-hour culture period
E. faecium 12406 (VRE); Vanc. 0.25 μg/mL, 1 hour
  Microbial NADH fluorescence (Ex340 nm/Em440 nm): 616,448
  Microbial tryptophan fluorescence (Ex300 nm/Em360 nm): 666,793
E. faecium 12406 (VRE); Vanc. 0.25 μg/mL, 2.5 hour
  Microbial NADH fluorescence (Ex340 nm/Em440 nm): 703,451
  Microbial tryptophan fluorescence (Ex300 nm/Em360 nm): 679,880
E. faecium 12406 (VRE); Vanc. 0.25 μg/mL, 4 hour
  Microbial NADH fluorescence (Ex340 nm/Em440 nm): 598,853
  Microbial tryptophan fluorescence (Ex300 nm/Em360 nm): 800,658
E. faecium 12406 (VRE); Vanc. 0.25 μg/mL, Zero time
  Microbial NADH fluorescence (Ex340 nm/Em440 nm): 207,307
  Microbial tryptophan fluorescence (Ex300 nm/Em360 nm): 463,942
E. faecium 12406 (VRE); Vanc. 2.5 μg/mL, 1 hour
  Microbial tryptophan fluorescence (Ex300 nm/Em360 nm): 560,948
E. faecium 12406 (VRE); Vanc. 2.5 μg/mL, 2.5 hour
  Microbial NADH fluorescence (Ex340 nm/Em440 nm): 573,926
  Microbial tryptophan fluorescence (Ex300 nm/Em360 nm): 656,768
E. faecium 12406 (VRE); Vanc. 2.5 μg/mL, 4 hour
  Microbial NADH fluorescence (Ex340 nm/Em440 nm): 931,786
  Microbial tryptophan fluorescence (Ex300 nm/Em360 nm): 651,886
E. faecium 12406 (VRE); Vanc. 2.5 μg/mL, Zero time
  Microbial NADH fluorescence (Ex340 nm/Em440 nm): 440,416
  Microbial tryptophan fluorescence (Ex300 nm/Em360 nm): 425,860
E. faecium 12406 (VRE); Vanc. 12.5 μg/mL, 1 hour
  Microbial NADH fluorescence (Ex340 nm/Em440 nm): 207,520
  Microbial tryptophan fluorescence (Ex300 nm/Em360 nm): 433,269
E. faecium 12406 (VRE); Vanc. 12.5 μg/mL, 2.5 hour
  Microbial NADH fluorescence (Ex340 nm/Em440 nm): 279,170
  Microbial tryptophan fluorescence (Ex300 nm/Em360 nm): 560,607
E. faecium 12406 (VRE); Vanc. 12.5 μg/mL, 4 hour
  Microbial NADH fluorescence (Ex340 nm/Em440 nm): 765,401
  Microbial tryptophan fluorescence (Ex300 nm/Em360 nm): 738,461
E. faecium 12406 (VRE); Vanc. 12.5 μg/mL, Zero time
  Microbial NADH fluorescence (Ex340 nm/Em440 nm): 172,372
  Microbial tryptophan fluorescence (Ex300 nm/Em360 nm): 463,985
E. faecium 12406 (VRE); [2]
  Course of cellular NADH levels: rose after approximately 1 hour in culture and continued to rise over the 4-hour culture period
  Course of cellular tryptophan levels: rose slowly over the 4-hour culture period
E. faecium 12406 (VRE); VRE strain #12406, correlated with an influx of Sytox Green
  Delay in NADH production compared with the other VRE strain: longer delay in NADH production
E. faecium #13185 (VRE)
  MIC: > 32 µg/mL
E. faecium #12406 (VRE)
  MIC: > 32 µg/mL
E. faecium 12480 (VSE); Vanc. 0.25 μg/mL, 1 hour
  Microbial NADH fluorescence (Ex340 nm/Em440 nm): 271,470
  Microbial tryptophan fluorescence (Ex300 nm/Em360 nm): 460,266
E. faecium 12480 (VSE); Vanc. 0.25 μg/mL, 2.5 hour
  Microbial NADH fluorescence (Ex340 nm/Em440 nm): 500,618
  Microbial tryptophan fluorescence (Ex300 nm/Em360 nm): 678,352
E. faecium 12480 (VSE); Vanc. 0.25 μg/mL, 4 hour
  Microbial NADH fluorescence (Ex340 nm/Em440 nm): 483,445
  Microbial tryptophan fluorescence (Ex300 nm/Em360 nm): 706,797
E. faecium 12480 (VSE); Vanc. 0.25 μg/mL, Zero time
  Microbial NADH fluorescence (Ex340 nm/Em440 nm): 184,649
  Microbial tryptophan fluorescence (Ex300 nm/Em360 nm): 425,539
E. faecium 12480 (VSE); Vanc. 2.5 μg/mL, 1 hour
  Microbial NADH fluorescence (Ex340 nm/Em440 nm): 254,828
  Microbial tryptophan fluorescence (Ex300 nm/Em360 nm): 438,541
E. faecium 12480 (VSE); Vanc. 2.5 μg/mL, 2.5 hour
  Microbial NADH fluorescence (Ex340 nm/Em440 nm): 149,686
  Microbial tryptophan fluorescence (Ex300 nm/Em360 nm): 466,525
E. faecium 12480 (VSE); Vanc. 2.5 μg/mL, 4 hour
  Microbial NADH fluorescence (Ex340 nm/Em440 nm): 100,931
  Microbial tryptophan fluorescence (Ex300 nm/Em360 nm): 416,780
E. faecium 12480 (VSE); Vanc. 2.5 μg/mL, Zero time
  Microbial NADH fluorescence (Ex340 nm/Em440 nm): 221,692
  Microbial tryptophan fluorescence (Ex300 nm/Em360 nm): 361,962
E. faecium 12480 (VSE); Vanc. 12.5 μg/mL, 1 hour
  Microbial NADH fluorescence (Ex340 nm/Em440 nm): 210,963
  Microbial tryptophan fluorescence (Ex300 nm/Em360 nm): 428,402
E. faecium 12480 (VSE); Vanc. 12.5 μg/mL, 2.5 hour
  Microbial NADH fluorescence (Ex340 nm/Em440 nm): 171,994
  Microbial tryptophan fluorescence (Ex300 nm/Em360 nm): 455,446
E. faecium 12480 (VSE); Vanc. 12.5 μg/mL, 4 hour
  Microbial NADH fluorescence (Ex340 nm/Em440 nm): 127,042
  Microbial tryptophan fluorescence (Ex300 nm/Em360 nm): 438,978
E. faecium 12480 (VSE); Vanc. 12.5 μg/mL, Zero time
  Microbial NADH fluorescence (Ex340 nm/Em440 nm): 178,982
  Microbial tryptophan fluorescence (Ex300 nm/Em360 nm): 389,264
E. faecium 12480 (VSE); [3]
  Course of cellular NADH levels: gradually declined over time
  Course of cellular tryptophan levels: remained stable over time
